The record followed here is patent US20080004272A1, “Compositions and methods for modulating gated ion channels” (PainCeptor Pharma Corporation, priority 2006, published 2008).

Test [1] has as its target T1, ASIC1a (Homo sapiens, UniProt P78348).
T1 sequence (P78348 1-528): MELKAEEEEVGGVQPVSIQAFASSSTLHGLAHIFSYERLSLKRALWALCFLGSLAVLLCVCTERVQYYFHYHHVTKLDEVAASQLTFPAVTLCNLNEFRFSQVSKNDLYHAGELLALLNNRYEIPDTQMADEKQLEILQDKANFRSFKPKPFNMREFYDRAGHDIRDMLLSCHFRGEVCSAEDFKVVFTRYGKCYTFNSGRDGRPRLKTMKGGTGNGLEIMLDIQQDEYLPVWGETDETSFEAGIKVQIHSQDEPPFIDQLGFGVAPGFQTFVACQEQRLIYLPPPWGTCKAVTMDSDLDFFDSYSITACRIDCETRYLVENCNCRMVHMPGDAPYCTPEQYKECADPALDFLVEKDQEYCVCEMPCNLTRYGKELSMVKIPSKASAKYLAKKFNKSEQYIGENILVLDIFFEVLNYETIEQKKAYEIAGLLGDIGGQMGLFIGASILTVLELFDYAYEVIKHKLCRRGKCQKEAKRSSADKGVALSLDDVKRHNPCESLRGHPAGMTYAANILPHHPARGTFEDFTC
Put plainly: Calcium imaging of MES-induced calcium response (FLIPR). The class given is cell-based. On the set-up: host or cells: HEK293. As to conditions: ASIC1a expressing HEK293 cells, MES-induced calcium response; read-out: IC50 (FLIPR). As to the method:
[…] Confluency of cells should be 80-90% on day of plating. Cells are rinsed with 10 ml of PBS and cells are re-suspended by addition of culture medium and trituration with a 25 ml pipette.
The cells are seeded at a density of approximately 1×10^6 cells/ml (100 μl/well) in black-walled, clear bottom, 96-well plates pre-treated with 10 mg/l poly-D-lysin (75 μl/well for ≧30 min). Plated cells are allowed to proliferate for 24 h before loading with dye.
Fluo-4/AM (1 mg, Molecular Probes) is dissolved in 912 μl DMSO. The Fluo-4/AM stock solution (1 mM) is diluted with culture medium to a final concentration of 2 μM (loading solution).
The culture medium is aspirated from the wells, and 50 μl of the Fluo-4/AM loading solution is added to each well. The cells are incubated at 37° C. for 30 min.
Following the second wash, 100 μl modified Assay Buffer is added to each well and the fluorescence is measured in FLIPR™ or FlexStation™ (Molecular Devices, USA), or any other suitable equipment known to the skilled in the art.
Temperature: Room temperature (20-22° C.)
First addition: 50 μl test solution at a rate of 30 μl/sec and a starting height of […]
Second addition: 50 μl MES solution (20 mM, 5 mM final concentration) at a rate of 35 μl/sec and a starting height of 150 μl.
Reading intervals: pre-incubation−10 sec×7 and 3 sec×3 antagonist phase−3 sec×7 and 10 sec×12
Addition plates (compound test plate and MES plate) are placed on the right and left positions in the FLIPR tray, respectively. Cell plates are placed in the middle position and the ASIC1a program is effectuated. FLIPR will then take the appropriate measurements in accordance with the interval settings above. Fluorescence obtained after stimulation is corrected for the mean basal fluorescence (in modified Assay Buffer).
The MES-induced peak calcium response, in the presence of test substance, is expressed relatively to the MES response alone. Test substances that block the MES-induced calcium response are re-tested in triplicates.

Test [2] concerns the target T1, ASIC1a. The test is described as follows: Two-electrode voltage clamp in Xenopus laevis oocytes (Xo), acid-induced currents. Type of test: cell-based. On the set-up: expressed in transfected cells; host or cells: Xenopus laevis oocytes (nuclear microinjection of expression vector such as pcDNA3). As to conditions: 50 μM, Xenopus oocytes; read-out: % inh. at 50 μM (Xo). As to the method:
Two-electrode voltage clamp electrophysiological assays in Xenopus laevis oocytes expressing gated ion channels are performed as follows:
Oocytes are surgically removed from adult Xenopus laevis and treated for 2 h at room temperature with 1 mg/ml type I collagenase (Sigma) in Barth's solution under mild agitation. Selected oocytes at stage IV-V are defolliculated manually before nuclear microinjection of 2.5-5 ng of a suitable expression vector, such as pcDNA3, comprising the nucleotide sequence encoding a gated ion channel subunit protein. In such an experiment, the oocytes express homomultimeric proton-gated ion channels on their surface. In an alternate experiment, one, two, three or more vectors comprising the coding sequences for distinct gated ion channel subunits are co-injected in the oocyte nuclei. In the latter case, oocytes express heteromultimeric proton-gated ion channels. For example, ASIC2a and/or ASIC3 subunits in pcDNA3 vector are co-injected at a 1:1 cDNA ratio. After 2-4 days of expression at 19° C. in Barth's solution containing […] gentamicin and 1.8 mM CaCl2, gated ion channels are activated by applying an acidic solution (pH<7) and currents are recorded in a two electrode voltage-clamp configuration, using an OC-725B amplifier (Warner Instruments). Currents are acquired and digitized at 500 Hz on an Apple Imac G3 computer with an A/D NB-MIO-16XL interface (National Instruments) and recorded traces are post-filtered at 100 Hz in Axograph (Axon Instruments) (Neher, E. and Sakmann, B. (1976) Nature 260:799-802). Once impaled with the microelectrodes, oocytes are continuously superfused at 10-12 ml/min with a modified Ringer's solution containing 97 mM NaCl, 2 mM KCl, 1.8 mM CaCl2, and 10 mM HEPES brought to pH 7.4 with NaOH (Control Ringer). Test Ringer solution is prepared by replacing HEPES with MES and adjusting the pH to the desired acidic value. Compounds of the present invention are prepared in both the Control and Test Ringer solutions and applied to oocytes at room temperature through a computer-controlled switching valve system. Osmolarity of all solutions is adjusted to 235 mOsm with choline chloride. Similarly, recordings can also be acquired in an automated multichannel oocytes system as the OpusExpress™ (Molecular Devices, Sunnyvale, USA).
FIGS. 1A and 2A illustrate the inhibitory effects of Compounds 203 and 206 on acid-induced activation of recombinant homomeric hASIC1a channels.

In general, IC50 refers to the midpoint of a concentration-inhibition curve.

Structures are written as SMILES. A value given as a limit tells only on which side of the number the result lay.

With `CN1CCc2c(-c3ccccc3)cc3c(c2C1)NC(=O)C3` [Compound 81], the IC50 in test [1] is more than 70 µM. Further, the inhibition at 50 µM in test [2] lay in the range of 20 to 40%.
On the same counts, the results for `[H]/N=C(\N)N/N=C1/C(=O)Nc2c1cc(-c1ccccc1)c1c2CN(C)CC1` [Compound 105] are 20 to 40 µM and 20 to 30%.
For `CN1CCc2c(-c3ccccc3)cc([N+](=O)[O-])c(N)c2C1` [Compound 155], in that order: 40 to 70 µM and less than 25%.
For `Cc1nc2c3c(c(-c4ccccc4)cc2c(=O)o1)CCN(C)C3` [Compound 97], in that order: more than 70 µM and less than 25%.
For the compound `CCOC(=O)C(=O)Nc1ccc(-c2ccccc2)c2c1CN(C)CC2` [Compound 162], the IC50 in test [1] is more than 70 µM. For the same compound, the inhibition at 50 µM in test [2] was less than 25%.
Consider `COC(=O)CC(=O)Nc1ccc(-c2ccccc2)c2c1CN(C)CC2` [Compound 137], for which the IC50 in test [1] was more than 70 µM. For the same compound, the inhibition at 50 µM in test [2] was less than 25%.
For `COC(=O)c1cc(-c2ccccc2)c2c(c1C(=O)OC)CN(C(=O)OC(C)(C)C)CC2` [Compound 179], in test [1], the IC50 was more than 70 µM. In addition, the inhibition at 50 µM in test [2] was less than 25%.
For `CN1CCc2c(-c3ccccc3)ccc(CN)c2C1` [Compound 115], in that order: more than 70 µM and less than 25%.
On the same counts, the results for `COc1ccc(NC(=O)NCc2ccc(-c3ccccc3)c3c2CN(C)CC3)cc1` [Compound 117] are more than 70 µM and less than 25%.
On the same counts, the results for `CCOC(=O)N1CCc2c(-c3ccccc3)ccc(N)c2C1` [Compound 159] are more than 70 µM and 20 to 40%.
With `CN1CCc2c(-c3ccccc3)cc(C(N)=O)c(N)c2C1` [Compound 128], in test [1], the 50% inhibitory concentration (IC50) is more than 70 µM. Besides, in test [2], the inhibition at 50 µM was less than 25%.
For `COC(=O)c1ccc(-c2ccccc2)c2c1CN(C(=O)OC(C)(C)C)CC2` [Compound 177], in that order: more than 70 µM and less than 25%.
On the same counts, the results for `CCOC(=O)N1CCc2c(-c3ccccc3)ccc(CN)c2C1` [Compound 120] are more than 70 µM and less than 25%.
On the same counts, the results for `CN1CCc2c(-c3ccccc3)cc3c(c2C1)NC(=O)/C3=N\NC(N)=O` [Compound 103] are 40 to 60 µM and less than 25%.
For the compound `CN1CCc2c(-c3ccccc3)cc3c(c2C1)NCC31OCCO1` [Compound 77], the IC50 in test [1] was more than 70 µM. The inhibition at 50 µM in test [2] was less than 25%.
On the same counts, the results for `CN1CCc2c(-c3ccccc3)ccc(NCCC(=O)O)c2C1` [Compound 151] are more than 70 µM and less than 25%.
Turning to `CN1CCc2c(-c3ccccc3)ccc(CNCC(=O)O)c2C1` [Compound 119], the IC50 in test [1] is more than 70 µM. In test [2], the inhibition at 50 µM is less than 25%.
In the case of `O=[N+]([O-])c1ccc(-c2ccccc2)c2ccncc12` [Compound 135], the 50% inhibitory concentration (IC50) in test [1] was more than 70 µM. In addition, in test [2], the inhibition at 50 µM is less than 25%.
Turning to `CN1CCc2c(-c3ccccc3)ccc(NC(=O)CCO)c2C1` [Compound 131], the IC50 in test [1] was more than 70 µM. Also, the inhibition at 50 µM in test [2] was less than 25%.
On the same counts, the results for `CN(C)/C=C1/C(=O)Nc2c1cc(-c1ccccc1)c1c2CN(C)CC1` [Compound 95] are more than 70 µM and less than 25%.
On the same counts, the results for `CN1CCc2c(-c3ccccc3)cc3cc[nH]c3c2C1` [Compound 78] are more than 70 µM and less than 25%.
As to `CN1CCc2c(-c3ccccc3)cc3c(O)cc(=O)[nH]c3c2C1` [Compound 94], in test [1], the IC50 is more than 70 µM. For the same compound, in test [2], the inhibition at 50 µM is less than 25%.
For `CN1CCc2c(-c3ccccc3)cc3c(c2C1)NC(=O)/C3=C/c1cccc(O)c1` [Compound 85], in that order: more than 70 µM and less than 25%.
On the same counts, the results for `COC(=O)CCC(=O)Nc1ccc(-c2ccccc2)c2c1CN(C)CC2` [Compound 132] are more than 70 µM and less than 25%.
On the same counts, the results for `COc1ccc(F)cc1-c1cc2c(c3c1CCN(C)C3)NC(=O)/C2=N\O[C@H]1O[C@@H](CO)[C@H](O)[C@@H](O)[C@@H]1O` [Compound 20] are 20 to 30 µM and less than 25%.
With `CN1CCc2c(-c3ccccc3)ccc(Nc3ncccc3C(=O)O)c2C1` [Compound 150], in test [1], the IC50 was more than 70 µM. Besides, in test [2], the inhibition at 50 µM is less than 25%.
For `CCOC(=O)N1CCc2c(-c3ccccc3)ccc(NCC(=O)O)c2C1` [Compound 138], in that order: more than 70 µM and less than 25%.
For `COc1ccc(C=O)cc1-c1cc2c(c3c1CCN(C)C3)NC(=O)/C2=N/O` [Compound 30], in that order: more than 70 µM and 40 to 60%.
On the same counts, the results for `CN1CCc2c(-c3ccccc3)ccc(NCC(=O)O)c2C1` [Compound 127] are more than 70 µM and less than 25%.
`CN1CCc2c(-c3ccccc3)cc3c(c2C1)NC(=O)C3O` (stereo not drawn) [Compound 79]: the IC50 in test [1] lay in the range of 20 to 40 µM. Besides, the inhibition at 50 µM in test [2] is less than 25%.
On the same counts, the results for `CCOC(=O)N1CCc2c(-c3ccccc3)ccc([N+](=O)[O-])c2C1` [Compound 161] are more than 70 µM and 20 to 40%.
Take `COc1ccc(F)cc1-c1cc(C#N)c(N(C(C)=O)C(C)=O)c2c1CCN(C)C2` [Compound 194, N-Acetyl-N-[7-cyano-5-(5-fluoro-2-methoxy-phenyl)-2-methyl-1,2,3,4-tetrahydro-isoquinolin-8-yl]-acetamide]: the inhibition at 50 µM in test [2] was less than 25%.
On the same count and under the same terms, then `COCCOCN1C(=O)/C(=N/O)c2cc(-c3ccccc3)c3c(c21)CN(C)CC3` [Compound 66], with 20 to 40%; and `CCN(CC)C(=O)c1cc(-c2cc(F)ccc2OC)cc(C)c1N` [Compound 188, 4-Amino-5′-fluoro-2′-methoxy-5-methyl-biphenyl-3-carboxylic acid diethylamide], with less than 25%; and `CN1CCc2c(-c3ccccc3)cc3c(c2C1)NC(=O)C3=NNCCO` [Compound 109], with less than 25%.
